Drawing on BindingDB's records for patent US20240116926 (Astrazeneca, 2024), this text covers IC50 for 1 compound.

The experiment concerns the target T1, Transcriptional enhancer factor TEF-3 [217-434] (Homo sapiens, UniProt Q15561).
T1 construct: 217-434
The experiment in a line: TEAD4 FRET Assay.

pIC50: −log10 of the molar value.

T1 sequence (Q15561 217-434): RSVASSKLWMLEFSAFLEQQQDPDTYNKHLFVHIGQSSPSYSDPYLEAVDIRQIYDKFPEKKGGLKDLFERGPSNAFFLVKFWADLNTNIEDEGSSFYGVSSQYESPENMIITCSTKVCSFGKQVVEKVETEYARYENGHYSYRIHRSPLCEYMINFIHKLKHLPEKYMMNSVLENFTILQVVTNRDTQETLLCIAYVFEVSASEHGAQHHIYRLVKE

Usually pIC50 stands for the IC50 on a negative log10 scale, so that one unit is a factor of ten. As to `C=CC(=O)N1C[C@H](C#N)[C@H](Nc2nnc(-c3ccc(C(F)(F)F)cc3)c3ccccc23)C1` (single isomer, unassigned) [US20240116926, Example 29], the pIC50 is 6.89.
